Results reported in article PMC8306139, “A Novel Dialkylamino-Functionalized Chalcone, DML6, Inhibits Cervical Cancer Cell Proliferation, In Vitro, via Induction of Oxidative Stress, Intrinsic Apoptosis and Mitotic Catastrophe” (Molecules, 2021).

How the values were obtained:
Format in all cases: cell-based
Bcl-2 = assay: Western blot, Bcl-2; details: OV2008, 20 μM, 24 h, vs vehicle
Method: (§1) The OV2008 cells were lysed to obtain total cellular protein fractions using Mammalian Protein Extraction Reagent (Catalog # 78501, M-PER™, Thermo Fisher Scientific, Waltham, MA, USA). The cells were seeded in […] at a density of 1 × 10^6 and incubated with 5 or 20 µM of DML6 or 1 µM of doxorubicin (Catalog # T1-2-, TargetMol, Boston, MA, USA) (a positive control) for 24 h. The following day, the cells were washed with ice-cold PBS, scraped using a cell scrapper and collected in Eppendorf tubes. The tubes were centrifuged at 1500 RPM at 4 °C for 5 min. The solution was discarded and replaced with 70 µL of the cell lysis buffer (M-PER reagent, 100 mM Sodium Orthovanadate (NaOV) at a final concentration of 2.5 mM) and a 100X protease inhibitor cocktail (Catalog # P8340, Sigma-Aldrich, St. Louis, MO, USA, final concentration of 1X, containing of aprotinin, bestatin, E-64, leupeptin and pepstatin). Thirty minutes later, the resulting solution was centrifuged at 10,000 RPM at 4 °C for 5 min and the supernatant was collected. The protein concentration of the cell extracts was determined using the bicinchoninic acid (BCA) (Catalog # 786-570, G-Biosciences, Saint Louis, MO, USA) quantification assay. […] Finally, the amount of protein in each blot was quantified using the Image J software (NIH, Bethesda, MD, USA). All data were calculated as a ratio to β-actin.

A549 = assay: MTT assay, A549; details: Homo sapiens, A549, 72 h, read-out: IC50 ± SD Lung A549
Method: (§2) The concentration of the tested compounds that produced a 50% inhibition of cell growth (IC50) was determined.
(§3) A panel of cancer cell lines, including cervical (OV2008 and HeLa), breast (MDA-MB-231), lung (A549) and colon (LOVO), prostate (DU145), human embryonic kidney cells (HEK293), human colon fibroblast cells (CRL1459), and Chinese hamster ovary cells (CHO), were grown as adherent monolayers in flasks containing Dulbecco’s modified Eagle medium (DMEM), supplemented with 10% fetal bovine serum (FBS) and 1% penicillin and streptomycin, in a humidified incubator with 5% CO2 at 37 °C.
(§4) The cells were seeded evenly (180 μL/well) in 96-well plates, at a density of 3000–5000 cells/well and incubated with serial dilutions of the compounds ranging from 0.1 to 100 μM. The MTT dye (4 mg/ml) was added after 72 h of incubation and incubated with the cells for an additional 4 h at 37 °C, allowing the viable cells to biotransform the yellow-colored MTT into dark-blue formazan crystals. Following incubation, the medium was aspirated, and the formazan crystals were dissolved by adding 100 μL of DMSO to each well. Cytation™ 5 and Cytation™ 7 multi-mode detector (Bio Tek Instruments, Winooski, VT, USA) was used to determine the absorbance readings at a wavelength of 570 nm. The IC50 values were determined based on 3 separate experiments, with each experiment carried out in triplicate.

[1] = system: human colon fibroblast cells (CRL1459); assay: MTT assay, CRL1459; details: 72 h
Method: as §2, §3
The cells were seeded evenly (180 μL/well) in 96-well plates, at a density of 3000–5000 cells/well and incubated with serial dilutions of the compounds ranging from 0.1 to 100 μM. […] Cytation™ 5 and Cytation™ 7 multi-mode detector (Bio Tek Instruments, Winooski, VT, USA) was used to determine the absorbance readings at a wavelength of 570 nm. The IC50 values were determined based on 3 separate experiments, with each experiment carried out in triplicate. The selectivity of the compounds was determined by comparing their IC50 values in cervical cancer compared to the normal epithelial cell lines, HEK293, CHO, and CRL1459.

caspase-3 = assay: Western blot, cleaved caspase-3; details: OV2008, 5 or 20 µM, vs vehicle
Method: as §1

OV2008 cells [2] = assay: IncuCyte Cytotox green assay; details: OV2008, up to 72 h, vs vehicle
Description: The IncuCyte cytotox green reagent (Catalog # 4633, Essence BioScience, Ann Arbour, MI, USA) was used for real time quantification of dead OV2008 cells as previously described. This dye will only penetrate into cells with non-intact membranes (dead or non-viable cells). As the cells die, the increase in cell membrane permeability allows the reagent to enter the nucleus and bind to DNA, which emits green fluorescence at an excitation maximum of 491 nm and emission maximum of 509 nm. OV2008 cells were seeded (100 µL/well) in a 96-well plate and incubated overnight. The following day, DML6 (0.1–100 μM) was prepared at 3X the final assay concentrations in diluted IncuCyte™ Cytotox Reagent and added to each well (50 µL/well). The cells were immediately placed in the IncuCyte® S3 Live-Cell Analysis System (Essen BioScience, Ann Arbor, MI, USA) and images were taken every 2 h up to 72 h and analyzed using the integrated IncuCyte S3 software version 2020B (Essen BioScience, Ann Arbor, MI, USA).

DU145 = assay: MTT assay, DU145; details: Homo sapiens, DU-145, 72 h, read-out: IC50 ± SD Prostate DU145
Method: as §2, §3, §4

OV2008 cells [3] = assay: IncuCyte live-cell morphology study (confluence); details: 72 hours, vehicle ≈70%
Method: Real-time live cell analysis was performed as previously described. In order to determine the morphological changes induced by DML6, OV2008 cells were seeded at 4000 cells/well in a 96-well plate and incubated overnight at 37 °C, with 5% CO2 in an incubator. […] IncuCyte was then programmed to capture the images at different time points (0, 24, 48 and 72 h), using the integrated IncuCyte S3 software version 2020B (Essen BioScience, Ann Arbor, MI, USA).

Bak = assay: Western blot, Bak; details: OV2008, 5 and 20 μM, 24 h, vs vehicle
Method: as §1

caspase-9 = assay: Western blot, cleaved caspase-9; details: OV2008, 20 μM, 24 hours, vs vehicle
Method: as §1

OV2008 cells [4] = assay: Reactive oxygen species detection (H2DCFDA); details: 5 or 20 μM, 24 h, vs vehicle
Method: The total intracellular level of reactive oxygen species (ROS) was determined by staining the cells with 2,7-dichlorofluorescein diacetate (H2DCFDA). In this assay, cellular esterases cleave the nonfluorescent H2DCFDA molecule to yield H2DCF, by removing the lipophilic moiety (a diacetate group). Subsequently, H2DCF is oxidized by ROS to 2′-7′dichlorofluorescein (DCF), which is a highly fluorescent dye. ROS levels were quantified based on the fluorescence level of DCF detected using EVOS microscope.
The compound, […] (H2DCFDA), was used to detect ROS as previously described. OV2008 cells were seeded at a density of 250,000 cells/ml. After 24 h of incubation with the vehicle, 5 or 20 µM of DML6, the cells were incubated with H2DCFDA for 30 min at 37 °C. The cells were washed 3 times with 1X PBS for 5 min. The levels of reactive oxygen species were then determined based on the fluorescence level of the oxidized DCFDA dye (excitation at 485 nm and emission at 535), using a EVOS digital fluorescent microscope at 20× magnification.

CN(C)c1ccc(/C=C/C(=O)c2ccc(Cl)cc2Cl)cc1 [DML6, (E)-1-[2,4-dichlorophenyl]-3-(4-(dimethylamino)phenyl)prop-2-en-1-one]
levels of the anti-apoptotic protein Bcl-2 (Bcl-2): significantly decreased
IC50 (A549): 84.9 ± 21.4 µM
cytotoxicity in normal cells, CRL1459 [1]: did not produce significant cytotoxicity
cleavage (activation) of caspase-3 (caspase-3): significantly increased the cleavage
Cytotox green fluorescent signal (dead cells) over time (OV2008 cells [2]): increased significantly
IC50 (DU145): 96.9 ± 4.4 µM
confluence of OV2008 (OV2008 cells [3]; 5 µM): ≈ 40%
confluence of OV2008 (OV2008 cells [3]; 20 µM): ≈ 10%
expression of the pro-apoptotic protein Bak (Bak): significantly increased the expression
cleavage of initiator caspase-9 (caspase-9): induced the cleavage
levels of DCF fluorescence (ROS) (OV2008 cells [4]): significantly higher
